Here are results for 7 compounds from PMC6678253, “The 1,3,5-Triazine Derivatives as Innovative Chemical Family of 5-HT6 Serotonin Receptor Agents with Therapeutic Perspectives for Cognitive Impairment” (International Journal of Molecular Sciences, 2019).

Where two headings read alike, the source gives them in different places.

Series [1] in a line: Vogel conflict drinking test. To be noted: rats.
Experimental: It was consisted of polycarbonate cages (dimensions 26.5 cm × 15 cm × 42 cm), equipped with a grid floor made from stainless steel bars and drinking bottles containing tap water. Experimental chambers were connected to PC software by control chassis and electric shocks’ generator. On the first day of the experiment, the rats were adapted to the test chambers and drink water from the bottle spout for 10 min. Afterwards, the rats were returned to their home cages and were given 30 min free access to water followed by a 24-h water deprivation period. The adaptation session and water deprivation protocols were repeated on the second day of the experiment. On the third day the rats were placed again in the test chambers 60 min after investigated and reference compounds administration and were given free access to the drinking tube. Recording data started immediately after the first lick and rats were punished with an electric shock (0.5 mA, lasting 1 s) delivered to the metal drinking tube every 20 licks. The number of licks and the number of shocks received during a 5-min experimental session were recorded automatically.
The target in the next series is T1, 5-HT2A (Homo sapiens, UniProt P28223).
T1 construct: expressed in transfected cells; host or cells: HEK-293
T1 sequence (P28223 whole entry): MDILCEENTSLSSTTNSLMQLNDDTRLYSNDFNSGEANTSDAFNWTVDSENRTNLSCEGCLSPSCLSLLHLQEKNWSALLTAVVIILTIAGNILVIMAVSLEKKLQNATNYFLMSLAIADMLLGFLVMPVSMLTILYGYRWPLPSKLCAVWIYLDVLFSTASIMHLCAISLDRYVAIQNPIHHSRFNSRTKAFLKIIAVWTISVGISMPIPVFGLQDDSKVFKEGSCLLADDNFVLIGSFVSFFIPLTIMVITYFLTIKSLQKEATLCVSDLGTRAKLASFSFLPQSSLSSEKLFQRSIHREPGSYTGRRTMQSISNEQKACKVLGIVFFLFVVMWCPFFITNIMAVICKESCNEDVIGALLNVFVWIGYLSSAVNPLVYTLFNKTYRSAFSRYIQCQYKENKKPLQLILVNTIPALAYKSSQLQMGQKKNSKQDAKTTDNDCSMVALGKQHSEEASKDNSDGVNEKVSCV
The series is described as follows: Radioligand binding assay, 5-HT2A ([3H]-ketanserin displacement). To be noted: human receptor stably expressed in HEK-293.

The target of another series is 5-HT6. The arrangement: method as in PMID 28441580, PMID 30530073, PMID 31229876. To be noted: human receptor stably expressed in HEK-293; determined previously; read-out: Ki 5-HT6 [3H]-LSD; cited from earlier work.
Another series concerns the target P-glycoprotein (Pgp) (Homo sapiens, UniProt P08183). The series is described as follows: Luminescent Pgp-Glo Assay System. To be noted: 100 μM, 40 min, 37 °C; for Pgp basal activity: > 100% = substrate, increase statistically insignificant.
The test system of series [2] is hepatoma HepG2 cell line. The series is described as follows: Hepatotoxicity, MTS assay in HepG2. To be noted: 72 h; 100 µM. For orientation: Tetrazolium dyes change colour on reduction, which living cells bring about.
Experimental: (§2) The cells’ viability was determined by CellTiter 96® AQueous Non-Radioactive Cell Proliferation Assay (MTS), which was purchased from Promega (Madison, WI, USA). The absorbance was measured using a microplate reader EnSpire (PerkinElmer, Waltham, MA USA) at 490 nm. All compounds were tested in quadruplicate. For ATP-level measurement the cells were growth in similar way as in cytotoxicity assays. The CellTiter-Glo® Luminescent Cell Viability Assay and protocol was provided by Promega (Madison, WI, USA). The luminescence was measured after 2 hours-long cells’ exposition on tested compounds and the positive control CCCP by a microplate reader EnSpire (PerkinElmer, Waltham, MA USA) at luminescence mode. All compounds were tested in triplicate.
Another series concerns the target T2, CYP3A4 (Homo sapiens, UniProt P08684).
T2 construct: purchased Promega (Madison, WI, USA)
In words: CYP3A4 P450-Glo assay. It is filed as in vitro ADME. To be noted: 0.01-25 μM; effect of 4 at 10 and 25 µM. The source says:
(§1) The potential risk of drug-drug interactions (DDI) were examined by luminescence-based CYP3A4 and CYP2D6 P450-Glo™ assays (Promega®). These two CYP isoforms are responsible for metabolism of approximately half of all marketed drugs, and an influence on their activity may be a source of DDI danger. […] The luminescent CYP3A4 P450-Glo™ and CYP2D6 P450-Glo™ Promega® (Madison, WI, USA) were used for investigation of potential drug-drug interactions. All assays and protocols were described before.

Series [3] concerns the target T3, 5-HT1A (Homo sapiens, UniProt P08908).
T3 construct: expressed in transfected cells; host or cells: HEK-293
T3 sequence (P08908 1-422): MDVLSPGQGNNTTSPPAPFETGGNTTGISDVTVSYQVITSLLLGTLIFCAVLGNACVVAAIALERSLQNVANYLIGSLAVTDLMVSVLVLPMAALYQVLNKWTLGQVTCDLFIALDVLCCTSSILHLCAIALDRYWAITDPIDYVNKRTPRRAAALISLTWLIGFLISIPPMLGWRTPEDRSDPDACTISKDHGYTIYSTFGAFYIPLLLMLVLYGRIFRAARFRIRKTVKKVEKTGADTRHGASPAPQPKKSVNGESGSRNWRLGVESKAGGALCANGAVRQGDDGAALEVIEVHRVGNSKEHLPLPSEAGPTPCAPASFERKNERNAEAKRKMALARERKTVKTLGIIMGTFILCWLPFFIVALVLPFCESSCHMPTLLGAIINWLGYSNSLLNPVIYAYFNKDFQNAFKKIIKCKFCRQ
In words: Radioligand binding assay, 5-HT1A ([3H]-8-OH-DPAT displacement). To be noted: human receptor stably expressed in HEK-293.

A further series concerns the target T4, CYP2D6 (Homo sapiens, UniProt P10635).
T4 construct: purchased Promega (Madison, WI, USA)
The series is described as follows: CYP2D6 P450-Glo assay. It is filed as in vitro ADME. To be noted: for CYP2D6 activity (inhibition): at 25 µM.
Source text: as §1

Series [4] is described as follows: Parallel artificial membrane permeability assay (PAMPA). It is filed as in vitro ADME. To be noted: PBS pH 7.4, 5 h, room temperature, breakpoint for permeable compounds Pe ≥ 1.5 × 10^−6 cm/s, read-out: Pe (permeability coefficient) ± SD. In general terms: PAMPA measures passive passage across an artificial lipid membrane.
Series [5] deals with T5, 5-HT7 (Homo sapiens, UniProt P34969).
T5 construct: expressed in transfected cells; host or cells: HEK-293
T5 sequence (P34969 1-432): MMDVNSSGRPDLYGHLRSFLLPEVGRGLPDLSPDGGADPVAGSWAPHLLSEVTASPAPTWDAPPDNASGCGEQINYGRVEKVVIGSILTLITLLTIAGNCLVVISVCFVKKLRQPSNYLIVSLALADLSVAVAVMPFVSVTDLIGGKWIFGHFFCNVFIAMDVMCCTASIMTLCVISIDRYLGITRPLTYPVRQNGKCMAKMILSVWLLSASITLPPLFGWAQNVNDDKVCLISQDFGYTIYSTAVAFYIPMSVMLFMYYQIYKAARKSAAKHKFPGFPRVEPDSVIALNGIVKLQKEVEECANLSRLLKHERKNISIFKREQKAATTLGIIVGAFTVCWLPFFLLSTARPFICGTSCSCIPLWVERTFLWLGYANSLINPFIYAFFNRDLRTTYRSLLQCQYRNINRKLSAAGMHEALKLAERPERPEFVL
The series is described as follows: Radioligand binding assay, 5-HT7 ([3H]-5-CT displacement). To be noted: human receptor stably expressed in HEK-293.

Series [6] in a line: Metabolic stability in human liver microsomes (HLMs). To be noted: for Clint: HLMs 1 mg/mL, 50 µM compound, Clint ≤ 8.6 = low clearance; for half-life at 50 µM: human, human liver microsomes. In general terms: Liver microsomes are a subcellular fraction often used to study metabolism.
Experimental: The t1/2 values and intrinsic clearances (Clint) were calculated using IS by protocols and formulas proposed by Obach [30].
The target of series [7] is T6, D2L (Homo sapiens, UniProt P14416).
T6 construct: expressed in transfected cells; host or cells: HEK-293
T6 sequence (P14416 whole entry): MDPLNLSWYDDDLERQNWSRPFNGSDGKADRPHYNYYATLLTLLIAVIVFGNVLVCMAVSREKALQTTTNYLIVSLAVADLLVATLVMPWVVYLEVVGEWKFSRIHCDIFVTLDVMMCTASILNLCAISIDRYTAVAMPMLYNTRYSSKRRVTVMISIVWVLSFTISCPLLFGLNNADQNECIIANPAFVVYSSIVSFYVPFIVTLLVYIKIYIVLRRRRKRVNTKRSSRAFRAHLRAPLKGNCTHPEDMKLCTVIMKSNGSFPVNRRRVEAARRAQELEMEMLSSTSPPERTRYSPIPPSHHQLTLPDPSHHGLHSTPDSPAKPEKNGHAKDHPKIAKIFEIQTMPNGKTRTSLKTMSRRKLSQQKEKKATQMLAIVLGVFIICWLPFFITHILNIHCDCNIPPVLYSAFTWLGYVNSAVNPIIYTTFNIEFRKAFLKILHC
In words: Radioligand binding assay, D2L ([3H]-raclopride displacement). To be noted: human receptor stably expressed in HEK-293.

The subject of series [8] is human embryonic kidney HEK-293 cell line. In words: Cytotoxicity, MTS assay in HEK-293.
Experimental: as §2
Series [9] has as its target T6, D2L. More on the design: method as in PMID 28441580, PMID 30530073, PMID 31229876. To be noted: human receptor stably expressed in HEK-293; determined previously; read-out: Ki D2L [3H]-Raclopride; cited from earlier work.
In series [10] the target is T5, 5-HT7. The arrangement: method as in PMID 28441580, PMID 30530073, PMID 31229876. To be noted: human receptor stably expressed in HEK-293; determined previously; read-out: Ki 5-HT7 [3H]-5-CT; cited from earlier work.
Series [11] has as its target T3, 5-HT1A. The arrangement: method as in PMID 28441580, PMID 30530073, PMID 31229876. To be noted: human receptor stably expressed in HEK-293; determined previously; read-out: Ki 5-HT1A [3H]-8-OH-DPAT; cited from earlier work.
Series [12] concerns hepatoma HepG2 cell line. In words: ATP level in HepG2 (CellTiter-Glo). To be noted: 2 h exposure, 10 µM.
Experimental: as §2
Series [13] in a line: Novel object recognition test (NORT), scopolamine-induced memory impairment. In kind it is in vivo, rat. To be noted: rats, 1 mg/kg; ANOVA NS. The text has this: Taking into account the ability of various 5-HT6R antagonists to improve cognitive deficits, the NORT assay was used to study the influence of the investigated compounds on visual episodic memory. This test is based on the spontaneous exploration of novel and familiar objects. The administration of scopolamine reduces an ability to discriminate a novel object from a familiar one, and any compounds that have a protective effect against this deficit are regarded as potentially useful for treating cognitive deficits that are characteristic for Alzheimer’s disease and other dementia connected disorders.
Five days before the experiment, the rats were transferred to the laboratory, labeled and, thereafter, left to acclimate to the new environment. The animals were handling every five days before experiments to minimize the stress reaction. The protocol was adapted from the original work. The test session comprising of two trials separated by an inter-trial interval (ITI) of 1 h was carried out on the next day. […]
The animals explored the objects by looking, licking, sniffing or touching the object but not when leaning against, standing or sitting on the object. […] Exploration time of the objects was measured by blind experimenter. Based on exploration time (E) of two objects during T2, discrimination index (DI) was calculated according to the formula: DI = (EB − EA)/(EA + […]). […]

[14] abbreviates: 72 h, only at 100 µM, 1 p < 0.001, 2 p < 0.05.

Chain of P-glycoprotein (Pgp) (P08183 whole entry): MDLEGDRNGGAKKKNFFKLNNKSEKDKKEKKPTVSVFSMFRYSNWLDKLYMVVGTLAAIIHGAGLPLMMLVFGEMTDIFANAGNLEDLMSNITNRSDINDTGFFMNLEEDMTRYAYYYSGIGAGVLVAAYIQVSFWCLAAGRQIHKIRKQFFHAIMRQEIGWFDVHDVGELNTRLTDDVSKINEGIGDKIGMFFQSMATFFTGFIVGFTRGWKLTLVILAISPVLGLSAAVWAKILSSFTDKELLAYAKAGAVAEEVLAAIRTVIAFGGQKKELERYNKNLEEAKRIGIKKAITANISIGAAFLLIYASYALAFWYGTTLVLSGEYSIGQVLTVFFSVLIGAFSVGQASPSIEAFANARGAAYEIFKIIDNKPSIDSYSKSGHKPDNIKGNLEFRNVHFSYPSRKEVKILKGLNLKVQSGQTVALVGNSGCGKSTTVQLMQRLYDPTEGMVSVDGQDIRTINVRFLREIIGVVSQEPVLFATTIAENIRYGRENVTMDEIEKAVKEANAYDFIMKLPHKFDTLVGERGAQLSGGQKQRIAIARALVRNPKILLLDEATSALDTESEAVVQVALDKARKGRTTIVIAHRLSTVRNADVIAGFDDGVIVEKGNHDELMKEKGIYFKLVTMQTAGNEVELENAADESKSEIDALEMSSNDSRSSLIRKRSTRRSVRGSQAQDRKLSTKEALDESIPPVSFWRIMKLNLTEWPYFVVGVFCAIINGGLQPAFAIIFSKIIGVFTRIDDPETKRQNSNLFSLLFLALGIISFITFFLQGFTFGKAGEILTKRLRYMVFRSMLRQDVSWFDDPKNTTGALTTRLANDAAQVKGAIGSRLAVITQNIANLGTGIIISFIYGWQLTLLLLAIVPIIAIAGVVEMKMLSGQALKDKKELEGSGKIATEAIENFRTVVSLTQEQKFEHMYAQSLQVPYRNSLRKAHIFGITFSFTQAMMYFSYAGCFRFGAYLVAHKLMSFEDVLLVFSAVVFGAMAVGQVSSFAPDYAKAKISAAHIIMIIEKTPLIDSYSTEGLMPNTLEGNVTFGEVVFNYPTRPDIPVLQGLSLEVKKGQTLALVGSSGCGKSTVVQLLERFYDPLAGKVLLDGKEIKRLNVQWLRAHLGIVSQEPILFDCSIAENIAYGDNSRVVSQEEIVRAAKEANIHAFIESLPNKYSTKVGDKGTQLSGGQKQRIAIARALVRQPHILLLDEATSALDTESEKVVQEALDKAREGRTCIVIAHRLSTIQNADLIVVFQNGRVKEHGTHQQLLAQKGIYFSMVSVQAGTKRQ
T4 sequence (P10635 whole entry): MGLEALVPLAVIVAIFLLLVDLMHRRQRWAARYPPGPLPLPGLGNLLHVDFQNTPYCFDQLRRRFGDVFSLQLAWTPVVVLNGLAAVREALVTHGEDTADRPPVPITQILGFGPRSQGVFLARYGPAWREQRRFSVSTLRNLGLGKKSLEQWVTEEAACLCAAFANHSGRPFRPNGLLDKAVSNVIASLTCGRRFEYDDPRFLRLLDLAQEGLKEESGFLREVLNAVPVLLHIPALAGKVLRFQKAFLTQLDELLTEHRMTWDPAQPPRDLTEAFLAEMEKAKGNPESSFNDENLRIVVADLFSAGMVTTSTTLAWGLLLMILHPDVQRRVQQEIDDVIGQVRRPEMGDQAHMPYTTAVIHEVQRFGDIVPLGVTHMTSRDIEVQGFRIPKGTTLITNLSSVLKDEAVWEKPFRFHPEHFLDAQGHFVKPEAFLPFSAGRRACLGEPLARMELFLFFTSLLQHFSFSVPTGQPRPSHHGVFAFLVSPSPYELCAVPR
T2 sequence (P08684 whole entry): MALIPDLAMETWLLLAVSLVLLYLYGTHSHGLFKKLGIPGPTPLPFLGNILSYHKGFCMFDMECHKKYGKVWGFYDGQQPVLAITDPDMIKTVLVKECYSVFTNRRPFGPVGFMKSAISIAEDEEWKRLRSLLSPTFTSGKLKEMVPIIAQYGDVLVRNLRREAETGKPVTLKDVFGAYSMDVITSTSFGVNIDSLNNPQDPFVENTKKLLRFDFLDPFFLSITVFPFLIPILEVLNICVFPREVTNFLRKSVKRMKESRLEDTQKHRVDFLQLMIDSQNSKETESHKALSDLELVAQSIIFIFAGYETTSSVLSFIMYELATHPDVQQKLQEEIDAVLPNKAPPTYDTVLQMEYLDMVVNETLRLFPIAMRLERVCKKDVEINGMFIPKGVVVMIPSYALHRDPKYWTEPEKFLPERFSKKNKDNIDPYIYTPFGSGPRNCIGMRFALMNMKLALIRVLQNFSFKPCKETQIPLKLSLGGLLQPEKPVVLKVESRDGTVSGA
Experimental for P-glycoprotein (Pgp): Moreover, the luminescence Pgp-Glo™ Assay was used in order to determine their influence on P-glycoprotein (Pgp) activity, the main efflux pump in the transport across blood–brain barrier (BBB) and the intestinal epithelium.
The luminescent Pgp-Glo™ Assay System used for determination of 5HT6R ligands’ influence on P-glycoprotein activity was purchased from Promega (Madison, WI, USA). […] The luminescence signal was measured by microplate reader EnSpire PerkinElmer (Waltham, MA, USA).

`COc1ccc(S(=O)(=O)Nc2cc(Cl)cc(Cl)c2OC)cc1N1CCNCC1` [SB-399885, N-[3,5-dichloro-2-(methoxy)-phenyl]-4-(methoxy)-1-(piperazinyl)benzenesulfonamide, reference compound]: the “anxiolytic-like activity in Vogel conflict drinking test” value (“anxiolytic-like activity” below) in [1] (1 and 3 mg/kg i.p.) is given as “exerted anxiolytic-like activity”; in [1] (i.p. 60 min before test), “anxiolytic-like activity was shown”.
As a reminder, the Ki is a measure of affinity in units of concentration, obtained from inhibition or displacement. As usually defined, the half-life is the time in which the quantity being followed falls by half. Lower therefore signals rapid decline. With `Cc1ccc(C(C)C)c(OCc2nc(N)nc(N3CCN(C)CC3)n2)c1` [Compound 4, 4-((2-isopropyl-5-methylphenoxy)methyl)-6-(4-methylpiperazin-1-yl)-1,3,5-triazin-2-amine], the Ki on 5-HT2A was 430 nM; at 5-HT6, 11 nM; at 5-HT1A [3], 12500 nM; on 5-HT7 [5] it was 12000 nM; on D2L [7], 1090 nM. For the same compound, the “increase of the number of licks” value in [1] (0.3 mg/kg i.p., p < 0.0001) is recorded as “about 76%”. In addition, the “anxiolytic-like activity” value in series [1] (i.p. 60 min before test) was “anxiolytic-like activity was shown”. For the same compound, the Pgp basal activity on P-glycoprotein (Pgp) was ~ 135%. Moreover, the “HepG2 viability (hepatotoxic effect)” value in the series with hepatoma HepG2 cell line [2] is recorded as “hepatotoxic effect”. Also, on CYP3A4, the “influence on CYP3A4 activity” value is on record as “slight induction effect”. Moreover, the “CYP2D6 activity (inhibition)” value on CYP2D6 was ~ 75 % of the control activity. The Papp at 5 h, 200 µM in series [4] amounted to 12.3 ± 1.98 ×10⁻⁶ cm/s. Also, in series [6], the Clint was determined as 6.30 mL/min/kg. Also, the half-life at 50 µM in series [6] is 1.65 h. Besides, the “lowest toxic dose vs 5-HT6R Ki” value in [8] (10 μM vs Ki = 11 nM) is given as ~ 1000 fold. The HEK-293 cells viability result in series [8] (72 h, at 10 and 100 µM, p < 0.001) was “statistically significant decrease in cells viability”. In addition, in series [8] (cytotoxicity, 72 h), the lowest toxic dose amounted to 10 µM.
With `Cc1cccc(Cc2nc(N)nc(N3CCN(C)CC3)n2)c1` [Compound 2], the inhibition constant (Ki) at D2L [9] was 1190 nM; at 5-HT2A it was 329 nM; on 5-HT7 [10], 16200 nM; on 5-HT1A [11], 10200 nM. The “effect on Pgp basal activity” value at P-glycoprotein (Pgp) (p < 0.001) is “inhibited significantly”. Further, the “CYP2D6 activity (induction)” value at CYP2D6 (at 10 and 25 µM) is listed as ~ 148 % of the control activity. Moreover, the Papp at 5 h, 200 µM in series [4] turned out to be 19.9 ± 2.68 ×10⁻⁶ cm/s. Besides, the Clint in series [6] came to 3.96 mL/min/kg. In addition, the half-life at 50 µM in [6] amounted to 2.63 h. In addition, the HEK-293 cells viability entry in [8] (setting [14]) is recorded as “significant effect”.
With `N#CC(C#N)=NNc1cccc(Cl)c1` [CCCP, carbonyl cyanide 3-chlorophenylhydrazone], in the series on hepatoma HepG2 cell line [12], the “ATP level in HepG2” value is recorded as ~ 33 % of control.
For the compound `CCN(C)C(=O)Oc1cccc([C@H](C)N(C)C)c1` [rivastigmine], the “effect on scopolamine induced learning deficits in NORT” value in series [13] is recorded as “similar, but lower pro-cognitive effects”.
Consider `CN1CCN(c2nc(N)nc(Cc3cccc(Cl)c3)n2)CC1` [Compound 1], for which the Ki is 838 nM on D2L [9]; 272 nM on 5-HT2A; 28 nM at 5-HT6; 8710 nM at 5-HT7 [10]; 4950 nM at 5-HT1A [11]. Further, the Pgp basal activity on P-glycoprotein (Pgp) was ~ 135%. Besides, the Papp at 5 h, 200 µM in [4] was 23.6 ± 2.14 ×10⁻⁶ cm/s. This compound also registered a Clint in [6] of 7.56 mL/min/kg. For the same compound, the half-life at 50 µM in series [6] was found to be 1.38 h. Further, the HEK-293 cells viability entry in series [8] (setting [14]) is “significant effect”.
For `CN1CCN(c2nc(N)nc(Cc3c[nH]c4ccccc34)n2)CC1` [Compound 3, 4-((1H-indol-3-yl)methyl)-6-(4-methylpiperazin-1-yl)-1,3,5-triazin-2-amine], the Ki is 1760 nM on 5-HT2A and 22 nM at 5-HT6. Besides, the “increase of the number of shocks” value in series [1] (1 mg/kg i.p., p < 0.05) is “about 82%”. Further, the “anxiolytic-like activity” value in series [1] (i.p. 60 min before test) was “anxiolytic-like activity was shown”. In addition, the Pgp basal activity on P-glycoprotein (Pgp) is recorded as ~ 135%. In addition, the “CYP2D6 activity (inhibition)” value on CYP2D6 is recorded as ~ 75 % of the control activity. Also, the Papp at 5 h, 200 µM in series [4] turned out to be 17.9 ± 5.76 ×10⁻⁶ cm/s. In series [6], the Clint is 2.34 mL/min/kg. The compound further registered a half-life at 50 µM in series [6] of 4.45 h.
